Earlier results in patent publication US20110190376A1, “RNAi-RELATED INHIBITION OF TNFa SIGNALING PATHWAY FOR TREATMENT OF MACULAR EDEMA” (ALCON RESEARCH, LTD., priority 2007, published 2011).

What was measured:
[1] = test system: severe diabetic macular edema; details: eyes that had severe diabetic macular edema
macular edema = details: patients also suffering from posterior uveitis
[2] = test system: refractory chronic cystoid macular edema (CME)

infliximab
eyes with anatomic and functional improvement [1]: four of six
resolution of macular edema (macular edema): caused macular edema to resolve in two patients
eyes with complete regression of refractory chronic cystoid macular edema [2]: 8 of 14
